Reference: ChEMBL document CHEMBL4350971, “Discovery of tropinone-thiazole derivatives as potent caspase 3/7 activators, and noncompetitive tyrosinase inhibitors with high antiproliferative activity: Rational design, one-pot tricomponent synthesis, and lipophilicity determination” (Eur J Med Chem, 2019)
The source made the active and inactive calls. The rule behind the calls is not given here.

Assays:
[1] = target: T1, Tyrosinase (Agaricus bisporus, UniProt O42713); assay: Inhibition of mushroom tyrosinase using L-dopa as substrate incubated for 30 mins by spectrophotometric method
T1 sequence (O42713 whole entry): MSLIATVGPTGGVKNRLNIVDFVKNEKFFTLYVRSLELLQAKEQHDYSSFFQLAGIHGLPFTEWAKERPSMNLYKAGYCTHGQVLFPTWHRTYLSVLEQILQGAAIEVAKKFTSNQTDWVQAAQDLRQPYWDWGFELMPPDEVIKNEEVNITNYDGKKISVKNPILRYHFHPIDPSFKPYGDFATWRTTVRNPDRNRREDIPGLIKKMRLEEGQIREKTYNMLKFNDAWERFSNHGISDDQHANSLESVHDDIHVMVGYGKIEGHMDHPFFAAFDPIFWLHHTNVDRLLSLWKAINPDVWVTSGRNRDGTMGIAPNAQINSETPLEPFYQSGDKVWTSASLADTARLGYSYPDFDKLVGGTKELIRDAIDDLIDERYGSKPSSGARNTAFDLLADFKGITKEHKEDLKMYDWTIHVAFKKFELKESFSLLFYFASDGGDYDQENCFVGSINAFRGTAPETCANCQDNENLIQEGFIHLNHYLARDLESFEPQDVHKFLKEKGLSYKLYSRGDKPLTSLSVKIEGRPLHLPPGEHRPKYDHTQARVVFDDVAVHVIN

[2] = tested on: B16-F10; assay: Antiproliferative activity against mouse B16F10 cells incubated for 72 hrs by MTT assay; type: functional, cell-based; settings: B16-F10, 72 h
[3] = tested on: A549; assay: Induction of apoptosis in human A549 cells assessed as fold increase in caspase 3/7 activation using Ac-DEVD-ACC as fluorogenic substrate at 5 ug/ml incubated for 72 hrs by fluorescence assay relative to control; type: functional
[4] = tested on: BALB/3T3; assay: Antiproliferative activity against mouse BALB/3T3 cells incubated for 72 hrs by SRB assay; type: cell-based; settings: BALB/3T3, 72 h
[5] = tested on: A549; assay: Antiproliferative activity against human A549 cells incubated for 72 hrs by SRB assay; type: functional, cell-based; settings: A549, 72 h
[6] = tested on: MV4-11; assay: Antiproliferative activity against human MV4-11 cells incubated for 72 hrs by MTT assay; type: functional, cell-based; settings: MV4-11, 72 h
[7] = Lipophilicity, chromatographic lipophilicity index of the compound in methanol by UPLC-MS/MS; type: physicochemical
[8] = tested on: MCF7; assay: Antiproliferative activity against human MCF7 cells incubated for 72 hrs by SRB assay; type: functional, cell-based; settings: MCF7, 72 h
[9] = tested on: A549; assay: Potency index, ratio of chlorambucil to ratio of test compound for induction of apoptosis in human A549 cells; type: functional
[10] = target: T2, Tyrosinase (Agaricus bisporus) (UniProt O42713); assay: Inhibition of mushroom tyrosinase assessed as reduction in peak intensity at 15 mM using L-dopa as substrate incubated for 30 mins by UV-vis spectra analysis
T2 sequence (whole entry): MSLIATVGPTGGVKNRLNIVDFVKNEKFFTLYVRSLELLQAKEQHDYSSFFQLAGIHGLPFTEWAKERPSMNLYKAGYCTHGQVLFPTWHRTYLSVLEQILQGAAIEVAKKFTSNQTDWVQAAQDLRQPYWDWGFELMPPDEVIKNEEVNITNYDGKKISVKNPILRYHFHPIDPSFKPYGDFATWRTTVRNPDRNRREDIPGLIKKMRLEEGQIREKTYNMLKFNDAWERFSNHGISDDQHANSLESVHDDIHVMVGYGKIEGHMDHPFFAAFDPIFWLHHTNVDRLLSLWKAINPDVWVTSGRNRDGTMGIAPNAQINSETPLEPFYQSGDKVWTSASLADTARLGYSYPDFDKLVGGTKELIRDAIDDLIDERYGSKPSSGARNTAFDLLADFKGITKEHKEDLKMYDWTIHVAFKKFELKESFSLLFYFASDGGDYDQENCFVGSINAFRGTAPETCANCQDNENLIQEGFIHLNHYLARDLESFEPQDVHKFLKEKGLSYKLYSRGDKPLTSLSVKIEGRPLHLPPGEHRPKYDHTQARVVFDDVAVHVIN

[11] = tested on: A549; assay: Potency index, ratio of camptothecin to ratio of test compound for induction of apoptosis in human A549 cells; type: functional
[12] = target: T2, Tyrosinase (Agaricus bisporus); assay: Ratio of IC50 for kojic acid to IC50 for test compound for inhibition of mushroom tyrosinase using L-dopa as substrate incubated for 30 mins by spectrophotometric method
[13] = target: T2, Tyrosinase (Agaricus bisporus); assay: Ratio of IC50 for ascorbic acid to IC50 for test compound for inhibition of mushroom tyrosinase using L-dopa as substrate incubated for 30 mins by spectrophotometric method
[14] = tested on: MCF7; assay: Antiproliferative activity against human MCF7 cells reduction in cell viability; type: functional, cell-based
[15] = tested on: HL-60; assay: Antiproliferative activity against human HL60 cells incubated for 48 hrs by MTS assay; type: functional, cell-based; settings: HL-60, 48 h
[16] = tested on: HCT-116; assay: Antiproliferative activity against human HCT116 cells by MTT assay; type: functional, cell-based

IC50 [14] [µM]	IC50 [15] [µM]	IC50 [16] [nM]	Compound	IC50 [1] [µM]	IC50 [2] [µM]	Activity [3]	IC50 [4] [µM]	IC50 [5] [µM]	IC50 [6] [µM]	logKw [7]	IC50 [8] [µM]	fold change (FC) [3]	Ratio [9]	inhibition [10]	Ratio [11]	Ratio IC50 [12]	Ratio IC50 [13]
			Cc1ccc(-c2csc(N/N=C3\C[C@H]4CC[C@@H](C3)N4C)n2)cc1	101	10.6	inactive	10.2	17.3	10.1	-2.654	11.1						
			CN1[C@@H]2CC[C@H]1C/C(=N/Nc1nc(-c3ccc(Br)cc3)cs1)C2	85	5.44		8.18	8.15	8.36	-3.066	7.67	3 - 5	3 - 5				
			CN1[C@@H]2CC[C@H]1C/C(=N/Nc1nc(-c3ccc(N=[N+]=[N-])cc3)cs1)C2	72.3	5.91	inactive	9.05	11	9.87	-3.151	8.94						
			CN1[C@@H]2CC[C@H]1C/C(=N/Nc1nc(-c3ccc(Cl)c(Cl)c3)cs1)C2	3.22	5.43		8.58	7.89	8.29	-4.024	7.19	25	18	Active	2	22	120
			CN1[C@@H]2CC[C@H]1C/C(=N/Nc1nc(-c3ccc(C(F)(F)F)cc3)cs1)C2	33.7	5.86		8.41	7.54	6.68	-3.25	6.02	3 - 5	3 - 5				
13.1	3.39		CN1[C@@H]2CC[C@H]1/C(=C\c1cccc(Br)c1)C(=O)/C2=C/c1cccc(Br)c1														
		10	CCN1[C@@H]2CC[C@H]1/C(=C\c1ccc(OC)c(OC)c1)C(=O)/C2=C/c1ccc(OC)c(OC)c1														
